# Read-outs that look alike come from different tables or passages of the source.
# Legend:
# [1] = target: 229E Mpro (Human coronavirus 229E (HCoV-229E), UniProt P0C6X1); assay: 229E Mpro activity; type: biochemical
# Experimental: Compounds are assayed using standard methods to assess compound activity and IC50. […] The assay buffer contains 20 mM of Tris-HCl (pH 7.3), 100 mM of NaCl, 1 mM of EDTA, 5mM of TCEP and 0.1% BSA.
# [2] = target: SARS-CoV2 Mpro (Severe acute respiratory syndrome coronavirus 2 (2019-nCoV) (SARS-CoV-2), UniProt P0DTD1); assay: COVID-19 (SARS-CoV2) Mpro enzymatic assay; type: biochemical; conditions: 25 nM Mpro, 25 μM substrate
# Chain of 229E Mpro (P0C6X1 2966-3267 limits assumed): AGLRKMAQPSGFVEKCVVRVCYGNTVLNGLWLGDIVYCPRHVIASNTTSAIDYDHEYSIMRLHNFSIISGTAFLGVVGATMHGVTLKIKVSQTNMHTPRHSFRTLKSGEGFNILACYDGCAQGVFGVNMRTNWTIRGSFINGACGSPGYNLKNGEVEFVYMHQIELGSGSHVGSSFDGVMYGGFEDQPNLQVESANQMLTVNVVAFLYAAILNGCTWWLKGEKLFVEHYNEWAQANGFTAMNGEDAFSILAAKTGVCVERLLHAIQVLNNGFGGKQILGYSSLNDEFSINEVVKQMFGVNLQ
SMILES,EC50 ([1]; read-out: 229E Mpro EC50),IC50 [2],EC50 ([1]; 229E Mpro EC50)
"COc1cc(Cl)c2[nH]c(C(=O)N3CC4(CCCCC4)CC3C(=O)N[C@H](C#N)C[C@@H]3CCCNC3=O)cc2c1 (single isomer, unassigned) [1147A (Isomer 1)]",< 2 µM,< 2 µM,–
"COc1cccc2[nH]c(C(=O)N[C@@H](CC3CC3(F)F)C(=O)N[C@H](C#N)C[C@@H]3CCCNC3=O)cc12 (single isomer, unassigned) [1059 (Isomer 1)]",< 2 µM,< 2 µM,–
"COc1cc(Cl)cc2[nH]c(C(=O)N3CC4(CCCCC4)CC3C(=O)N[C@H](C#N)C[C@@H]3CCCNC3=O)cc12 (single isomer, unassigned) [908 (Isomer 2)]",2 to 10 µM,2 to 10 µM,–
"COc1ccc2[nH]c(C(=O)N3CC4(CCC4)CC3C(=O)N[C@H](C#N)C[C@@H]3CCNC3=O)cc2c1Cl (single isomer, unassigned) [886 (Isomer 2)]",< 2 µM,< 2 µM,–
"CC1(C)CC(C[C@@H](C#N)NC(=O)C2CC3(CCCCC3)CN2C(=O)c2cc3cccc(Cl)c3[nH]2)C(=O)N1 (single isomer, unassigned) [930 (Isomer 6)]",< 2 µM,< 2 µM,–
"COc1cccc2[nH]c(C(=O)N3CC4(CCC(F)(F)CC4)CC3C(=O)N[C@H](C#N)C[C@@H]3CCCNC3=O)cc12 (single isomer, unassigned) [982 (Isomer 2)]",> 30 µM,> 30 µM,–
"N#C[C@H](C[C@@H]1CCCNC1=O)NC(=O)C1CC2(CCC(F)(F)CC2)CN1C(=O)c1cc2cccc(Cl)c2[nH]1 (single isomer, unassigned) [805 (Isomer 1)]",> 30 µM,10 to 30 µM,–
"COc1cccc2[nH]c(C(=O)N[C@@H](CC3CC3)C(=O)N[C@@]3(C#N)C[C@@H]4CC[C@H]3[C@@H]3C(=O)NC(=O)[C@H]43)cc12 (single isomer, unassigned) [489 (Isomer 2)]",> 30 µM,> 30 µM,–
"COc1ccc(Cl)c2[nH]c(C(=O)N3CC4(CCC4)CC3C(=O)N[C@H](C#N)C[C@@H]3CCNC3=O)cc12 (single isomer, unassigned) [992 (Isomer 1)]",< 2 µM,< 2 µM,–
"COc1cc(Cl)c2[nH]c(C(=O)N3CC4(CCCCC4)CC3C(=O)N[C@H](C#N)C[C@@H]3CCCNC3=O)cc2c1 (single isomer, unassigned) [1147A (Isomer 2)]",10 to 30 µM,2 to 10 µM,–
"COc1ccc(Cl)c2[nH]c(C(=O)N3CC4(CCCCC4)CC3C(=O)NC(C#N)C[C@@H]3CCCNC3=O)cc12 (single isomer, unassigned) [902 (Isomer 3)]",< 2 µM,< 2 µM,–
"CC1(C)CC(C[C@@H](C#N)NC(=O)[C@H](CC2CC2)NC(=O)c2cc3cccc(Cl)c3[nH]2)C(=O)N1 (single isomer, unassigned) [1053 (Isomer 1)]",> 30 µM,2 to 10 µM,–
"COc1cccc2[nH]c(C(=O)N[C@@H](CC3CC3(F)F)C(=O)N[C@H](C#N)C[C@@H]3CCCNC3=O)cc12 (single isomer, unassigned) [1059 (Isomer 2)]",10 to 30 µM,10 to 30 µM,–
COC(=O)NS(=O)(=O)n1nccc1C(=O)N[C@@H](CC1CC1)C(=O)N[C@H](C#N)C[C@@H]1CCCNC1=O [Compound 1258],2 to 10 µM,2 to 10 µM,–
"N#C[C@H](C[C@@H]1CCCNC1=O)NC(=O)C1CC2(CCC2)CN1C(=O)c1cc2c(Cl)cccc2[nH]1 (single isomer, unassigned) [803 (Isomer 1)]",> 30 µM,> 30 µM,–
"N#C[C@H](C[C@@H]1CCCNC1=O)NC(=O)C1CC2(CCC2)CN1C(=O)c1cc2ccc(Cl)cc2[nH]1 (single isomer, unassigned) [791 (Isomer 1)]",> 30 µM,> 30 µM,–
"N#C[C@H](C[C@@H]1CCCNC1=O)NC(=O)C1CC2(CCC2)CN1C(=O)c1cc2c(Cl)cccc2[nH]1 (single isomer, unassigned) [803 (Isomer 4)]",< 2 µM,2 to 10 µM,–
"CC(C)(C)OC(=O)N1CCCCC12CCN(C(CC1CC1)C(=O)N[C@H](C#N)C[C@@H]1CCNC1=O)C2=O (single isomer, unassigned) [473 (Isomer 1)]",> 30 µM,> 30 µM,–
"CC1(C)CC(C[C@@H](C#N)NC(=O)C2CC3(CCCCC3)CN2C(=O)c2cc3cccc(Cl)c3[nH]2)C(=O)N1 (single isomer, unassigned) [930 (Isomer 3.1)]",< 2 µM,< 2 µM,–
"COc1ccc(Cl)c2[nH]c(C(=O)N3CC4(CCCCC4)CC3C(=O)NC(C#N)C[C@@H]3CCCNC3=O)cc12 (single isomer, unassigned) [902 (Isomer 4)]",> 30 µM,> 30 µM,–

SMILES,EC50 ([1]; read-out: 229E Mpro EC50),IC50 [2],EC50 ([1]; 229E Mpro EC50)
"CC1(C)CC(C[C@@H](C#N)NC(=O)[C@H](CC2CC2)NC(=O)c2cc3cccc(Cl)c3[nH]2)C(=O)N1 (single isomer, unassigned) [1053 (Isomer 4)]",–,< 2 µM,–
"COc1cccc2[nH]c(C(=O)N3C[C@H](c4ccccc4)C[C@H]3C(=O)N[C@H](C#N)C[C@@H]3CCCNC3=O)cc12 [Compound 611, (2S,4S)-N-[(1S)-1-cyano-2-[(3S)-2-oxo-3-piperidyl]ethyl]-1-(4-methoxy-1H-indole-2-carbonyl)-4-phenyl-pyrrolidine-2-carboxamide]",< 2 µM,–,–
"N#C[C@H](C[C@@H]1CCCNC1=O)NC(=O)C1CC2(CCC2)CN1C(=O)c1cc2cccc(Cl)c2[nH]1 (single isomer, unassigned) [729 (Isomer 1)]",< 2 µM,–,–
"N#C[C@H](C[C@@H]1CCCNC1=O)NC(=O)[C@H](CC1CC1)NC(=O)c1cc2cc(F)cc(Br)c2[nH]1 [Compound 852, 7-bromo-N-((S)-1-(((S)-1-cyano-2-((S)-2-oxopiperidin-3-yl)ethyl)amino)-3-cyclopropyl-1-oxopropan-2-yl)-5-fluoro-1H-indole-2-carboxamide]",< 2 µM,–,–
"COc1cccc2[nH]c(C(=O)N3C[C@H](C(C)(C)C)C[C@H]3C(=O)N[C@H](C#N)C[C@@H]3CCNC3=O)cc12 [Compound 655, (2S,4S)-4-(tert-butyl)-N-((S)-1-cyano-2-((S)-2-oxopyrrolidin-3-yl)ethyl)-1-(4-methoxy-1H-indole-2-carbonyl)pyrrolidine-2-carboxamide]",10 to 30 µM,–,–
"COc1cccc2[nH]c(C(=O)N3CC(C)(C)C[C@H]3C(=O)N[C@H](C#N)C[C@@H]3CCNC3=O)cc12 (single isomer, unassigned) [395 (Isomer 1)]",< 2 µM,–,–
"COc1cccc2[nH]c(C(=O)N[C@@H](CC3CC3)C(=O)NC(C#N)CN3CCNC3=O)cc12 (mixture of isomers) [Compound 493, N-[(1S)-2-[[1-cyano-2-(2-oxoimidazolidin-1-yl)ethyl]amino]-1-(cyclopropylmethyl)-2-oxo-ethyl]-4-methoxy-1H-indole-2-carboxamide]",> 30 µM,–,–
"N#C[C@H](C[C@@H]1CCNC1=O)NC(=O)C1CC2(CCCCC2)CN1C(=O)c1cc2ccc(Cl)cc2[nH]1 (single isomer, unassigned) [878 (Isomer 1)]",< 2 µM,–,–
"N#C[C@H](C[C@@H]1CCNC1=O)NC(=O)[C@@H]1CS[C@H]2CC[C@H](N)C(=O)N21 [Compound 479, (3R,6S)-6-amino-N-[(1S)-1-cyano-2-[(3S)-2-oxopyrrolidin-3-yl]ethyl]-5-oxo-2,3,6,7,8,8a-hexahydrothiazolo[3,2-a]pyridine-3-carboxamide]",10 to 30 µM,–,–
"COc1cccc2[nH]c(C(=O)N3CC4(CCCC4)C[C@H]3C(=O)N[C@H](C#N)C[C@@H]3CCNC3=O)cc12 (single isomer, unassigned) [401 (Isomer 1)]",< 2 µM,–,–
"CC(C)C[C@H](NC(=O)CC(C)(O)c1ccc(Cl)cc1)C(=O)N[C@H](C#N)C[C@@H]1CCNC1=O (single isomer, unassigned) [365 (Isomer 1)]",2 to 10 µM,–,–
"COc1cccc2[nH]c(C(=O)N3CCC4(CC4)C[C@H]3C(=O)N[C@H](C#N)C[C@@H]3CCNC3=O)cc12 [Compound 183, (S)-N-((S)-1-cyano-2-((S)-2-oxopyrrolidin-3-yl)ethyl)-6-(4-methoxy-1H-indole-2-carbonyl)-6-azaspiro[2.5]octane-5-carboxamide]",2 to 10 µM,–,–
"COc1ccc(F)c2[nH]c(C(=O)N[C@@H](CC3CC3)C(=O)N[C@H](C#N)C[C@@H]3CCCNC3=O)cc12 [Compound 820, N-((S)-1-(((S)-1-cyano-2-((S)-2-oxopiperidin-3-yl)ethyl)amino)-3-cyclopropyl-1-oxopropan-2-yl)-7-fluoro-4-methoxy-1H-indole-2-carboxamide]",< 2 µM,–,–
"CN1CCCC[C@@]12CCN([C@H](CC1CC1)C(=O)N[C@H](C#N)C[C@@H]1CCNC1=O)C2=O [Compound 273B, (2R)-N-[(1S)-1-cyano-2-[(3S)-2-oxopyrrolidin-3-yl]ethyl]-3-cyclopropyl-2-[(5S)-6-methyl-1-oxo-2,6-diazaspiro[4.5]decan-2-yl]propanamide]",> 30 µM,–,–
"N#C[C@H](C[C@@H]1CCNC1=O)NC(=O)[C@@H]1CCc2ccc(NCC(=O)Oc3ccccc3)c(=O)n21 [Compound 483, phenyl 2-[[(3S)-3-[[(1S)-1-cyano-2-[(3S)-2-oxopyrrolidin-3-yl]ethyl]carbamoyl]-5-oxo-2,3-dihydro-1H-indolizin-6-yl]amino]acetate]",> 30 µM,–,–
"CC1(C)CCC(C[C@@H](C#N)NC(=O)[C@H](CC2CC2)NC(=O)c2cc3cccc(Cl)c3[nH]2)C(=O)N1 (single isomer, unassigned) [Compound 749 (Isomer 1)]",–,–,2 to 10 µM
N#Cc1cccc2[nH]c(C(=O)N[C@@H](CC3CC3)C(=O)N[C@H](C#N)C[C@@H]3CCCNC3=O)cc12 [Compound 858],< 2 µM,–,–
"COc1cccc2[nH]c(C(=O)N3C[C@H](c4ccccc4)C[C@H]3C(=O)N[C@@H](C[C@@H]3CCNC3=O)C(O)C#N)cc12 (single isomer, unassigned) [345 (Isomer 1)]",< 2 µM,–,–
"COc1cccc2[nH]c(C(=O)N[C@@H](CC(C)C)C(=O)N[C@@H](C[C@@H]3CCNC3=O)C(C#N)N3CCCC3)cc12 (single isomer, unassigned) [331 (Isomer 2)]",< 2 µM,–,–

# — patent publication US11524940B1, “Inhibitors of cysteine proteases and methods of use thereof” (priority 2020, dated 2022)
